In one assay the target is T1, FPR2 (Homo sapiens, UniProt P25090).
T1 construct: expressed in transfected cells; host or cells: RBL cells (RBL-FPR2)
T1 sequence (P25090 1-351): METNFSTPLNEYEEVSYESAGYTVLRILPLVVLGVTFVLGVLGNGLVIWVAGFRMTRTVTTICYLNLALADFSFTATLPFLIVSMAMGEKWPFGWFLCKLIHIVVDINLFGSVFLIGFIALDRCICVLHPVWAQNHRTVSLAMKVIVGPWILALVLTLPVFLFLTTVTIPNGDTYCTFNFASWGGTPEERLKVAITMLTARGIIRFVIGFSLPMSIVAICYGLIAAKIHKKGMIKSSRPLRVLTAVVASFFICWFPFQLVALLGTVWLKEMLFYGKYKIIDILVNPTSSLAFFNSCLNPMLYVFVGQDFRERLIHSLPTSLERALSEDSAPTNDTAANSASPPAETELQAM
The assay is described as follows: Change in calcium activity by peptide (Fura-2) in RBL cells overexpressing FPR2. The format is cell-based. The note with it: calcium activity (Fura-2), graded per Table 3, read-out: EC50 for [Ca^2+] FPR2. An outline of the steps: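 Peptide-induced intracellular calcium change measured by Fura-2 fluorescence on a plate reader. Cells: RBL line overexpressing FPR2, dye-loaded 1 h at 37 °C then 30 min at RT in dark; peptides from 0.5 mM water/50% DMSO stocks, diluted in HBSS with 20 mM HEPES.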

The target in another assay is T2, FPR1 (Homo sapiens, UniProt P21462).
T2 sequence (P21462 1-350): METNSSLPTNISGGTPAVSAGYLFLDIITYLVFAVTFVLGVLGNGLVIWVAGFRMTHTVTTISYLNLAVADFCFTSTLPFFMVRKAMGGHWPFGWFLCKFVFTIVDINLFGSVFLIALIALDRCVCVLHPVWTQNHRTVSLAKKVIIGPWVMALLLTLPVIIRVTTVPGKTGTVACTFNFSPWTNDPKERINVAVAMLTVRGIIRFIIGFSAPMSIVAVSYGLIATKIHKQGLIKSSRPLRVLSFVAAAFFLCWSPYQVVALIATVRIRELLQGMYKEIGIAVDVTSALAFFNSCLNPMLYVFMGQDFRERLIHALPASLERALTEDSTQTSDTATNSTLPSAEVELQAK
Description: Change in calcium activity by peptide, FPR1 activation effect. Format: cell-based. The note with it: calcium activity (Fura-2), graded per Table 3, read-out: EC50 for [Ca^2+] FPR1. The essentials: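 Calcium flux induced by peptide addition was monitored on a FlexStation 3 plate reader. Before this, cells seeded a day earlier (3×10^5/well) took up the Fura-2 dye for 1 h at 37 °C plus 30 min dark at room temperature.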

Structures are written as SMILES. Peptide text beside a SMILES is read from it.

Take `CSCC[C@@H](NC(=O)[C@H](Cc1ccc(O)cc1)NC(=O)[C@H](Cc1c[nH]c2ccccc12)NC(=O)[C@H](Cc1ccc(O)cc1)NC(=O)[C@H](CCCNC(=N)N)NC(=O)[C@@H](N)Cc1c[nH]c2ccccc12)C(N)=O` [Peptide 79] (HELM PEPTIDE1{W.R.Y.W.Y.[dM].[am]}$$$$V2.0): the results for the EC50 on FPR2 and on FPR1 were 11 to 100 nM and greater than 10000 nM, respectively.
On the same counts, the results for `CCCC(=O)N[C@@H](Cc1c[nH]cn1)C(=O)N[C@@H](CCSC)C(=O)N[C@@H](CCCCN)C(=O)N[C@@H](Cc1ccc(O)cc1)C(=O)N[C@@H](Cc1ccc(O)cc1)C(=O)N[C@@H](Cc1ccc(O)cc1)C(=O)N[C@H](CCSC)C(N)=O` [Peptide 127] (HELM PEPTIDE1{[CCCC(=O)[*:2]].H.M.K.Y.Y.Y.[dM].[am]}$$$$V2.0) are less than 10 nM and greater than 10000 nM.
Take `CSCC[C@@H](NC(=O)[C@@H](NC(=O)[C@H](Cc1c[nH]c2ccccc12)NC(=O)[C@H](Cc1ccc(O)cc1)NC(=O)[C@H](CCCNC(=N)N)NC(=O)[C@H](Cc1c[nH]c2ccccc12)NC(C)=O)C(C)C)C(N)=O` [Peptide 102] (HELM PEPTIDE1{[ac].W.R.Y.W.V.[dM].[am]}$$$$V2.0): the EC50 on FPR2 was less than 10 nM; at FPR1, 101 to 1000 nM.
On the same counts, the results for `CSCC[C@H](NC(C)=O)C(=O)N[C@@H](CCCNC(=N)N)C(=O)N[C@@H](Cc1ccc(O)cc1)C(=O)N[C@@H](CCCCN)C(=O)N[C@H](C(=O)N[C@H](CCSC)C(N)=O)C(C)C` [Peptide 14] (HELM PEPTIDE1{[ac].M.R.Y.K.V.[dM].[am]}$$$$V2.0) are less than 10 nM and 1000 to 10000 nM.
On the same counts, the results for `CSCC[C@@H](NC(=O)[C@@H]1CCCN1C(=O)[C@H](CCCCN)NC(=O)[C@H](Cc1ccc(O)cc1)NC(=O)[C@H](CCCNC(=N)N)NC(=O)[C@H](Cc1c[nH]c2ccccc12)NC(C)=O)C(N)=O` [Peptide 76] (HELM PEPTIDE1{[ac].W.R.Y.K.P.[dM].[am]}$$$$V2.0) are less than 10 nM and 1000 to 10000 nM.
With `CC[C@H](C)[C@H](N)C(=O)N[C@@H](CCCCN)C(=O)N[C@@H](Cc1ccc(O)cc1)C(=O)N[C@@H](CCCCN)C(=O)N1CCC[C@H]1C(=O)N[C@H](CCSC)C(N)=O` [Peptide 142] (HELM PEPTIDE1{I.K.Y.K.P.[dM].[am]}$$$$V2.0), the values for the EC50 at FPR2 and on FPR1 were less than 10 nM and greater than 10000 nM, respectively.
On the same counts, the results for `CSCC[C@H](NC(=O)[C@@H](N)Cc1c[nH]cn1)C(=O)N[C@@H](CCCNC(=N)N)C(=O)N[C@@H](Cc1ccc(O)cc1)C(=O)N[C@@H](CCCCN)C(=O)N[C@@H](Cc1ccc(O)cc1)C(=O)N[C@H](CCSC)C(N)=O` [Peptide 44] (HELM PEPTIDE1{H.M.R.Y.K.Y.[dM].[am]}$$$$V2.0) are 11 to 100 nM and greater than 10000 nM.
For the compound `CSCC[C@@H](NC(=O)[C@@H]1CCCN1C(=O)[C@H](Cc1ccc(O)cc1)NC(=O)[C@H](Cc1ccc(O)cc1)NC(=O)[C@H](CCCNC(=N)N)NC(=O)[C@H](Cc1c[nH]c2ccccc12)NC(=O)[C@H](CCCNC(=N)N)NC(C)=O)C(N)=O` [Peptide 121] (HELM PEPTIDE1{[ac].R.W.R.Y.Y.P.[dM].[am]}$$$$V2.0), the results for the EC50 on FPR2 and on FPR1 were less than 10 nM and 101 to 1000 nM, respectively.
As for `CCCC(=O)N[C@@H](CCCNC(=N)N)C(=O)N[C@@H](CCSC)C(=O)N[C@@H](CCCNC(=N)N)C(=O)N[C@@H](Cc1ccc(O)cc1)C(=O)N[C@@H](CCCCN)C(=O)N[C@H](C(=O)N[C@H](CCSC)C(N)=O)C(C)C` [Peptide 7] (HELM PEPTIDE1{[CCCC(=O)[*:2]].R.M.R.Y.K.V.[dM].[am]}$$$$V2.0), the EC50 on FPR2 is less than 10 nM; on FPR1, greater than 10000 nM.
On the same counts, the results for `CSCC[C@@H](NC(=O)[C@@H]1CCCN1C(=O)[C@H](Cc1c[nH]c2ccccc12)NC(=O)[C@H](Cc1ccc(O)cc1)NC(=O)[C@H](CCCNC(=N)N)NC(=O)[C@H](Cc1c[nH]c2ccccc12)NC(=O)[C@H](CCCNC(=N)N)NC(C)=O)C(N)=O` [Peptide 117] (HELM PEPTIDE1{[ac].R.W.R.Y.W.P.[dM].[am]}$$$$V2.0) are less than 10 nM and 101 to 1000 nM.

Usually EC50 stands for the concentration giving half of the maximal effect.

Source of the values: patent US20250361268A1, “NOVEL ANTI-INFLAMMATORY PEPTIDE AND USE THEREOF” (NOVACELL TECHNOLOGY INC., priority 2022, published 2025).
